Strand notation (5' to 3'): a small letter for the sugar, then the base; units joined by * are phosphorothioate-linked, units joined directly phosphodiester-linked; [ ] holds rarer units or linkages, { } end groups; capitals alone tell only the bases. [ms] = mesyl phosphoramidate linkage; e = 2'-O-(2-methoxyethyl) (MOE); [5mC] = 5-methylcytosine; d = 2'-deoxy (DNA)
What was measured:
human APOE RNA [1] = assay: Activity in APOE C57BL/6NTac-Apoeem7250 knock-in mice, single ICV bolus, 8 weeks (Example 11); format: in vivo; settings: single ICV bolus 300 μg, 8 weeks post treatment, normalized to mouse Ppia
Method: (§1) Modified oligonucleotides described above were tested in the APOE C57BL/6NTac-Apoeem7250 knock-in mouse model described above.
Each mouse received a single ICV bolus of 300 μg of modified oligonucleotide. A group of 3-4 mice received a single ICV bolus with PBS as a negative control.
(§2) Eight weeks post treatment, mice were sacrificed and RNA was extracted from cortical brain tissue and spinal cord for quantitative real-time RT-PCR analysis of RNA expression of APOE using human primer probe set RTS3073 (described herein above). APOE RNA levels were normalized to mouse Ppia. Mouse Ppia was amplified using primer probe set m_cyclo24 (described herein above). Results are presented as percent human APOE RNA relative to the amount of human APOE RNA in PBS treated animals, (% control). Each experiment is identified in separate tables below.

human APOE RNA [2] = assay: Activity in APOE C57BL/6NTac-Apoeem7250 knock-in mice, single ICV bolus, 16 weeks (Example 12); format: in vivo; settings: single ICV bolus 300 μg, 16 weeks post treatment, normalized to mouse Ppia
Method: as §1
APOE C57BL/6NTac-Apoeem7250 knock-in mice were divided into groups of 3-4 mice each. Each mouse received a single intracerebroventricular (ICV) bolus of 300 μg of modified oligonucleotide. A group of 4 mice received a single ICV bolus with PBS as a negative control.
as §2, with “Sixteen” for “Eight”, “using” for “using human”

Substance | APOE RNA (% control) Cortex (human APOE RNA [1]) | APOE RNA (% control) Spinal Cord (human APOE RNA [1]) | APOE RNA (% control) Cortex (human APOE RNA [2]) | APOE RNA (% control) Spinal Cord (human APOE RNA [2])
1652898: 6-10-4 MOE gapmer GGTGAATCTTTATTAAACTA, linkages sooooossssssssssoss (antisense eG*eGeTeGeAeAdT*d[5mC]*dT*dT*dT*dA*dT*dT*dA*dA*eAe[5mC]*eT*eA) [compound 1652898] | 56 % control | 20 % control |  | 
1652899: 6-10-4 MOE gapmer TGGTGAATCTTTATTAAACT, linkages sooooossssssssssoss (antisense eT*eGeGeTeGeAdA*dT*d[5mC]*dT*dT*dT*dA*dT*dT*dA*eAeA*e[5mC]*eT) [compound 1652899] | 57 % control | 16 % control |  | 
1652900: 6-10-4 MOE gapmer GTGAATCTTTATTAAACTAG, linkages sooooossssssssssoss (antisense eG*eTeGeAeAeTd[5mC]*dT*dT*dT*dA*dT*dT*dA*dA*dA*e[5mC]eT*eA*eG) [compound 1652900] | 83 % control | 47 % control |  | 
1652905: 6-10-4 MOE gapmer GGTGAATCTTTATTAAACTA, linkages sooossssssssssssoss (antisense eG*eGeTeGeA*eA*dT*d[5mC]*dT*dT*dT*dA*dT*dT*dA*dA*eAe[5mC]*eT*eA) [compound 1652905] | 44 % control | 15 % control |  | 
1652907: 5-10-5 MOE gapmer GGTGAATCTTTATTAAACTA, linkages soooszzssssssssooss (antisense eG*eGeTeGeA*dA[ms]dT[ms]d[5mC]*dT*dT*dT*dA*dT*dT*dA*eAeAe[5mC]*eT*eA) [compound 1652907] | 54 % control | 16 % control |  | 
1652908: 5-10-5 MOE gapmer GGTGAATCTTTATTAAACTA, linkages soooszzzsssssssooss (antisense eG*eGeTeGeA*dA[ms]dT[ms]d[5mC][ms]dT*dT*dT*dA*dT*dT*dA*eAeAe[5mC]*eT*eA) [compound 1652908] | 54 % control | 18 % control |  | 
1693073: 5-10-5 MOE gapmer ACTTGGTGAATCTTTATTAA, linkages sssossszzzzzsssssss (eA*e[5mC]*eT*eTeG*dG*dT*dG[ms]dA[ms]dA[ms]dT[ms]d[5mC][ms]dT*dT*dT*eA*eT*eT*eA*eA) [compound 1693073] |  |  | 107 % control | 52 % control
1693074: 5-10-5 MOE gapmer ACTTGGTGAATCTTTATTAA, linkages ssosssszzzzzsssssss (eA*e[5mC]*eTeT*eG*dG*dT*dG[ms]dA[ms]dA[ms]dT[ms]d[5mC][ms]dT*dT*dT*eA*eT*eT*eA*eA) [compound 1693074] |  |  | 84 % control | 71 % control
1693075: 5-10-5 MOE gapmer ACTTGGTGAATCTTTATTAA, linkages ssssssszzzzzsssssss (eA*e[5mC]*eT*eT*eG*dG*dT*dG[ms]dA[ms]dA[ms]dT[ms]d[5mC][ms]dT*dT*dT*eA*eT*eT*eA*eA) [compound 1693075] |  |  | 87 % control | 64 % control
1693077: 6-10-4 MOE gapmer TTGGTGAATCTTTATTAAAC, linkages sosssszzszssszssoss (eT*eTeG*eG*eT*eG*dA[ms]dA[ms]dT*d[5mC][ms]dT*dT*dT*dA[ms]dT*dT*eAeA*eA*e[5mC]) [compound 1693077] |  |  | 98 % control | 76 % control
1693078: 6-10-4 MOE gapmer TTGGTGAATCTTTATTAAAC, linkages ssossszzszssszssoss (eT*eT*eGeG*eT*eG*dA[ms]dA[ms]dT*d[5mC][ms]dT*dT*dT*dA[ms]dT*dT*eAeA*eA*e[5mC]) [compound 1693078] |  |  | 98 % control | 99 % control
1693079: 6-10-4 MOE gapmer TTGGTGAATCTTTATTAAAC, linkages sssosszzszssszssoss (eT*eT*eG*eGeT*eG*dA[ms]dA[ms]dT*d[5mC][ms]dT*dT*dT*dA[ms]dT*dT*eAeA*eA*e[5mC]) [compound 1693079] |  |  | 93 % control | 106 % control
1693080: 6-10-4 MOE gapmer TTGGTGAATCTTTATTAAAC, linkages ssssoszzszssszssoss (eT*eT*eG*eG*eTeG*dA[ms]dA[ms]dT*d[5mC][ms]dT*dT*dT*dA[ms]dT*dT*eAeA*eA*e[5mC]) [compound 1693080] |  |  | 99 % control | 88 % control
1693081: 6-10-4 MOE gapmer TTGGTGAATCTTTATTAAAC, linkages sssssozzszssszssoss (eT*eT*eG*eG*eT*eGdA[ms]dA[ms]dT*d[5mC][ms]dT*dT*dT*dA[ms]dT*dT*eAeA*eA*e[5mC]) [compound 1693081] |  |  | 91 % control | 100 % control
1693100: 6-10-4 MOE gapmer CTTGGTGAATCTTTATTAAA, linkages sssssszzzssssszsoss (e[5mC]*eT*eT*eG*eG*eT*dG[ms]dA[ms]dA[ms]dT*d[5mC]*dT*dT*dT*dA[ms]dT*eTeA*eA*eA) [compound 1693100] |  |  | 87 % control | 51 % control
1693103: 6-10-4 MOE gapmer CTTGGTGAATCTTTATTAAA, linkages sssosszzzssssszssss (e[5mC]*eT*eT*eGeG*eT*dG[ms]dA[ms]dA[ms]dT*d[5mC]*dT*dT*dT*dA[ms]dT*eT*eA*eA*eA) [compound 1693103] |  |  | 84 % control | 56 % control
1693104: 6-10-4 MOE gapmer CTTGGTGAATCTTTATTAAA, linkages ssossszzzssssszssss (e[5mC]*eT*eTeG*eG*eT*dG[ms]dA[ms]dA[ms]dT*d[5mC]*dT*dT*dT*dA[ms]dT*eT*eA*eA*eA) [compound 1693104] |  |  | 129 % control | 52 % control
1693106: 6-10-4 MOE gapmer CTTGGTGAATCTTTATTAAA, linkages sssssszzzssssszssss (e[5mC]*eT*eT*eG*eG*eT*dG[ms]dA[ms]dA[ms]dT*d[5mC]*dT*dT*dT*dA[ms]dT*eT*eA*eA*eA) [compound 1693106] |  |  | 78 % control | 71 % control
1693110: 6-10-4 MOE gapmer CTTGGTGAATCTTTATTAAA, linkages sssssszzzsssszzssss (e[5mC]*eT*eT*eG*eG*eT*dG[ms]dA[ms]dA[ms]dT*d[5mC]*dT*dT*dT[ms]dA[ms]dT*eT*eA*eA*eA) [compound 1693110] |  |  | 113 % control | 92 % control
1693138: 6-10-4 MOE gapmer CTTGGTGAATCTTTATTAAA, linkages sssssozzzsssszzsoss (e[5mC]*eT*eT*eG*eG*eTdG[ms]dA[ms]dA[ms]dT*d[5mC]*dT*dT*dT[ms]dA[ms]dT*eTeA*eA*eA) [compound 1693138] |  |  | 90 % control | 85 % control
1693139: 6-10-4 MOE gapmer ACTTGGTGAATCTTTATTAA, linkages ssssssszzzssssszsss (eA*e[5mC]*eT*eT*eG*eG*dT*dG[ms]dA[ms]dA[ms]dT*d[5mC]*dT*dT*dT*dA[ms]eT*eT*eA*eA) [compound 1693139] |  |  | 92 % control | 97 % control
1693140: 6-10-4 MOE gapmer ACTTGGTGAATCTTTATTAA, linkages sssssoszzzssssszoss (eA*e[5mC]*eT*eT*eG*eGdT*dG[ms]dA[ms]dA[ms]dT*d[5mC]*dT*dT*dT*dA[ms]eTeT*eA*eA) [compound 1693140] |  |  | 109 % control | 68 % control
1693141: 6-10-4 MOE gapmer ACTTGGTGAATCTTTATTAA, linkages ssssooszzzssssszsss (eA*e[5mC]*eT*eT*eGeGdT*dG[ms]dA[ms]dA[ms]dT*d[5mC]*dT*dT*dT*dA[ms]eT*eT*eA*eA) [compound 1693141] |  |  | 82 % control | 66 % control
1693142: 6-10-4 MOE gapmer ACTTGGTGAATCTTTATTAA, linkages sssoosszzzssssszsss (eA*e[5mC]*eT*eTeGeG*dT*dG[ms]dA[ms]dA[ms]dT*d[5mC]*dT*dT*dT*dA[ms]eT*eT*eA*eA) [compound 1693142] |  |  | 98 % control | 92 % control
1693143: 6-10-4 MOE gapmer ACTTGGTGAATCTTTATTAA, linkages ssossszzzssssszsss (as printed) (sugars from the 5' end e6 d10 e4, all C 5-methyl, backbone not given here; further chemistry not fully specified) [compound 1693143] |  |  | 76 % control | 64 % control

From patent US20250353873A1, “COMPOUNDS AND METHODS FOR MODULATING APOE EXPRESSION” (Ionis Pharmaceuticals, Inc., priority 2024, published 2025)
